Here are results for one molecule from patent publication US20100069632A1, “SALTS OF PYRROLOPYRIMIDINONE DERIVATIVES AND PROCESS FOR PREPARING THE SAME” (SK CHEMICALS CO., LTD, priority 2006, published 2010).

Holding throughout (format): physicochemical
Data set [1] in a line: Water and atmospheric (storage) stability: total impurities by liquid chromatography after storage. How it is done:
This test is for confirming the storage stability of SK-3530 salt.
A sufficient stability is required to process a drug into a particular medication form. For instance, preparation into tablet or capsule requires atmospheric stability and preparation into injection may require water stability.
The following Table 1 (25° C., 75% humidity), Table 2 (40° C., 60% humidity) and Table 3 (50° C., 75% humidity) show the content of total impurities measured by liquid chromatography after storing dihydrochloride (2HCl), gentisate, maleate, citrate, fumarate and hemitartrate salts of SK-3530 for 1 week and 3 weeks.

Data set [2] in a line: Photostability test (UV and visible light), impurity content and color change. How it is done:
The following Table 4 and Table 5 show the photostability test result for dihydrochloride salt (2HCl), gentisate, maleate, citrate, fumarate and hemitartrate salts of SK-3530. The total ultraviolet (UV) radiation was 200 W·h/m^2 and the total visible light radiation was 1080 klux/m^2h. Each salt was kept on a Petri dish under the condition of 25° C. and 60% humidity.

Data set [3] can be described thus: Thermal stability test at 105° C., impurity content and color change. How it is done: The following Table 6 and Table 7 show the thermal stability test result for dihydrochloride salt (2HCl), gentisate, maleate, citrate, fumarate and hemitartrate salts of SK-3530. Each salt was placed on a Petri dish and kept in a dryer at 105° C. Following macroscopic observation at 3 hours and 48 hours later, the content of impurities was measured with liquid chromatography.

Data set [4] is described as follows: Solubility. Particulars: statement in words, no test described.
Data set [5] can be described thus: Hygroscopicity. Particulars: statement in words, no test described.
The mark [6] stands for this setting: thermal stability test, initial.

`CCCOc1ccc(S(=O)(=O)N2CCN(CCO)CC2)cc1-c1nc2c(CCC)cn(CC)c2c(=O)[nH]1.Cl.Cl` [SK-3530 dihydrochloride salt, reference compound]: the “Impurity content (%) at 25° C., 75% humidity, 1 week” value in data set [1] (25° C., 75% humidity, 1 week) is recorded as 0.24%. Also, the “Impurity content (%) at 25° C., 75% humidity, 3 weeks” value in data set [1] (25° C., 75% humidity, 3 weeks) came to 0.31%. For the same molecule, in data set [1] (25° C., 75% humidity, initial), the “Impurity content (%) at 25° C., 75% humidity, Initial” value was found to be 0.20%. The “Impurity content (%) at 40° C., 60% humidity, 1 week” value in data set [1] (40° C., 60% humidity, 1 week) is on record as 0.24%. In addition, the “Impurity content (%) at 40° C., 60% humidity, 3 weeks” value in data set [1] (40° C., 60% humidity, 3 weeks) stood at 0.38%. Also, the “Impurity content (%) at 40° C., 60% humidity, Initial” value in data set [1] (40° C., 60% humidity, initial) is reported as 0.20%. Besides, the “Impurity content (%) at 50° C., 75% humidity, 1 week” value in data set [1] (50° C., 75% humidity, 1 week) is recorded as 0.27%. In addition, the “Impurity content (%) at 50° C., 75% humidity, 3 weeks” value in data set [1] (50° C., 75% humidity, 3 weeks) is on record as 0.42%. Further, in data set [1] (50° C., 75% humidity, initial), the “Impurity content (%) at 50° C., 75% humidity, Initial” value was 0.20%. In data set [2] (photostability test, initial), the “Color change, Initial” value was “White” and the “Impurity content (%), Initial” value was 0.20%. In data set [2] (total UV radiation 200 W·h/m^2, 25° C., 60% humidity), the “Color change, UV” value is recorded as “Brown”. Moreover, the “Impurity content (%), UV” value in data set [2] (total UV radiation 200 W·h/m^2, 25° C., 60% humidity, Petri dish) is recorded as 5.92%. For the same molecule, the “Color change, Visible” value in data set [2] (total visible light radiation 1080 klux/m^2h, 25° C., 60% humidity) was “Yellow”. For the same molecule, in data set [2] (total visible light radiation 1080 klux/m^2h, 25° C., 60% humidity, Petri dish), the “Impurity content (%), Visible” value came out at 1.37%. For the same molecule, the “Impurity content (%), 3 hours” value in data set [3] (dryer at 105° C., 3 hours) was 3.06%. In data set [3] (dryer at 105° C., 3 hours, macroscopic observation), the “Color change, 3 hours” value is on record as “White”. The “Impurity content (%), 48 hours” value in data set [3] (dryer at 105° C., 48 hours) came to 14.37%. In addition, in data set [3] (dryer at 105° C., 48 hours, macroscopic observation), the “Color change, 48 hours” value was “Yellow”. For the same molecule, in data set [3] (setting [6]), the “Color change, Initial” value is “White” and the “Impurity content (%), Initial” value was 0.20%. Moreover, in data set [4], the Solubility result was “good solubility”. In addition, in data set [5], the Hygroscopicity entry is “hygroscopic”.
